ChEMBL document CHEMBL4270599, “Synthesis of a 3'-C-ethynyl-β-d-ribofuranose purine nucleoside library: Discovery of C7-deazapurine analogs as potent antiproliferative nucleosides” (Eur J Med Chem, 2018)

Assays:
Type in all cases: functional
ACHN [1] = experiment: Growth inhibition of human ACHN cells assessed as cell growth at 10^-8 M incubated for 48 hrs by sulforhodamine B assay relative to control; conditions: read-out: Activity
HCT-15 = experiment: Growth inhibition of human HCT15 cells assessed as cell growth at 10^-4 M incubated for 48 hrs by sulforhodamine B assay relative to control; conditions: HCT-15, 48 h, read-out: Activity
Hs-578T = experiment: Growth inhibition of human Hs 578T cells assessed as cell growth at 10^-7 M incubated for 48 hrs by sulforhodamine B assay relative to control; conditions: read-out: Activity
COLO 205 = experiment: Cytotoxicity against human COLO205 cells after 48 hrs by SRB assay; conditions: COLO 205, 48 h; for GI50: read-out: GI50; for CC50: read-out: LC50 (the source's name); for TGI: read-out: TGI
BT-549 = experiment: Growth inhibition of human BT549 cells assessed as cell growth at 10^-7 M incubated for 48 hrs by sulforhodamine B assay relative to control; conditions: BT-549, 48 h, read-out: Activity
EKVX [2] = experiment: Growth inhibition of human EKVX cells assessed as cell growth at 10^-6 M incubated for 48 hrs by sulforhodamine B assay relative to control; conditions: read-out: Activity
ACHN [3] = experiment: Growth inhibition of human ACHN cells assessed as cell growth at 10^-6 M incubated for 48 hrs by sulforhodamine B assay relative to control; conditions: read-out: Activity
HL-60(TB) = experiment: Growth inhibition of human HL-60(TB) cells assessed as cell growth at 10^-7 M incubated for 48 hrs by sulforhodamine B assay relative to control; conditions: HL-60, 48 h, read-out: Activity
SF-539 = experiment: Cytotoxicity against human SF539 cells after 48 hrs by SRB assay; conditions: SF-539, 48 h; for GI50: read-out: GI50; for CC50: read-out: LC50 (the source's name); for TGI: read-out: TGI
M14 [4] = experiment: Growth inhibition of human M14 cells assessed as cell growth at 10^-7 M incubated for 48 hrs by sulforhodamine B assay relative to control; conditions: M14, 48 h, read-out: Activity
TK-10 = experiment: Cytotoxicity against human TK10 cells after 48 hrs by SRB assay; conditions: TK-10, 48 h; for GI50: read-out: GI50; for TGI: read-out: TGI
K562 = experiment: Cytotoxicity against human K562 cells after 48 hrs by SRB assay; conditions: K562, 48 h; for GI50: read-out: GI50
OVCAR-8 = experiment: Growth inhibition of human OVCAR8 cells assessed as cell growth at 10^-8 M incubated for 48 hrs by sulforhodamine B assay relative to control; conditions: OVCAR-8, 48 h, read-out: Activity
A498 [5] = experiment: Growth inhibition of human A498 cells assessed as cell growth at 10^-8 M incubated for 48 hrs by sulforhodamine B assay relative to control; conditions: A498, 48 h, read-out: Activity
UACC-257 = experiment: Cytotoxicity against human UACC257 cells after 48 hrs by SRB assay; conditions: UACC-257, 48 h; for GI50: read-out: GI50; for CC50: read-out: LC50 (the source's name); for TGI: read-out: TGI
A498 [6] = experiment: Cytotoxicity against human A498 cells after 48 hrs by SRB assay; conditions: A498, 48 h; for GI50: read-out: GI50; for CC50: read-out: LC50 (the source's name); for TGI: read-out: TGI
NCI-H226 = experiment: Growth inhibition of human NCI-H226 cells assessed as cell growth at 10^-7 M incubated for 48 hrs by sulforhodamine B assay relative to control; conditions: NCI-H226, 48 h, read-out: Activity
OVCAR-4 = experiment: Growth inhibition of human OVCAR4 cells assessed as cell growth at 10^-7 M incubated for 48 hrs by sulforhodamine B assay relative to control; conditions: OVCAR-4, 48 h, read-out: Activity
UO-31 [7] = experiment: Growth inhibition of human UO31 cells assessed as cell growth at 10^-7 M incubated for 48 hrs by sulforhodamine B assay relative to control; conditions: UO-31, 48 h, read-out: Activity
UO-31 [8] = experiment: Growth inhibition of human UO31 cells assessed as cell growth at 10^-8 M incubated for 48 hrs by sulforhodamine B assay relative to control; conditions: UO-31, 48 h, read-out: Activity
ACHN [9] = experiment: Growth inhibition of human ACHN cells assessed as cell growth at 10^-4 M incubated for 48 hrs by sulforhodamine B assay relative to control; conditions: read-out: Activity
CCRF-CEM = experiment: Growth inhibition of human CCRF-CEM cells assessed as cell growth at 10^-8 M incubated for 48 hrs by sulforhodamine B assay relative to control; conditions: read-out: Activity
SN12C [10] = experiment: Growth inhibition of human SN12C cells assessed as cell growth at 10^-7 M incubated for 48 hrs by sulforhodamine B assay relative to control; conditions: read-out: Activity
SF-295 = experiment: Growth inhibition of human SF295 cells assessed as cell growth at 10^-6 M incubated for 48 hrs by sulforhodamine B assay relative to control; conditions: SF-295, 48 h, read-out: Activity
EKVX [11] = experiment: Growth inhibition of human EKVX cells assessed as cell growth at 10^-7 M incubated for 48 hrs by sulforhodamine B assay relative to control; conditions: read-out: Activity
M14 [12] = experiment: Cytotoxicity against human M14 cells after 48 hrs by SRB assay; conditions: M14, 48 h; for GI50: read-out: GI50; for CC50: read-out: LC50 (the source's name); for TGI: read-out: TGI
UO-31 [13] = experiment: Cytotoxicity against human UO31 cells after 48 hrs by SRB assay; conditions: UO-31, 48 h; for GI50: read-out: GI50; for TGI: read-out: TGI; for CC50: read-out: pLC50 (the source's name) (converted)
SNB-19 = experiment: Cytotoxicity against human SNB19 cells after 48 hrs by SRB assay; conditions: SNB-19, 48 h; for GI50: read-out: GI50
PC-3 = experiment: Growth inhibition of human PC3 cells assessed as cell growth at 10^-8 M incubated for 48 hrs by sulforhodamine B assay relative to control; conditions: PC-3, 48 h, read-out: Activity
SN12C [14] = experiment: Growth inhibition of human SN12C cells assessed as cell growth at 10^-8 M incubated for 48 hrs by sulforhodamine B assay relative to control; conditions: read-out: Activity
MDA-MB-231 [15] = experiment: Growth inhibition of human MDA-MB-231 cells assessed as cell growth at 10^-5 M incubated for 48 hrs by sulforhodamine B assay relative to control; conditions: MDA-MB-231, 48 h, read-out: Activity
MDA-MB-231 [16] = experiment: Growth inhibition of human MDA-MB-231 cells assessed as cell growth at 10^-4 M incubated for 48 hrs by sulforhodamine B assay relative to control; conditions: MDA-MB-231, 48 h, read-out: Activity
[17] = read-out: pLC50 (the source's name) (converted)
[18] = read-out: LC50 (the source's name)

SMILES: C#C[C@@]1(O)[C@@H](CO)O[C@@H](n2cc(Cl)c3c(N)ncnc32)[C@@H]1O
- growth at 0.01 µM (ACHN [1]): 95%
- growth at 100 µM (HCT-15): 1%
- growth at 0.1 µM (Hs-578T): 100 to 107%
- GI50 (COLO 205): 71.2 to 157 nM
- CC50 (COLO 205): 10000 to 40400 nM
- TGI (COLO 205): 276 to 521 nM
- growth at 0.1 µM (BT-549): 86 to 90%
- growth at 1 µM (EKVX [2]): 10%
- growth at 1 µM (ACHN [3]): 7%
- growth at 0.1 µM (HL-60(TB)): 19 to 47%
- GI50 (SF-539): 299 to 351 nM
- CC50 (SF-539): 21900 to 33900 nM
- TGI (SF-539): 1300 to 1610 nM
- growth at 0.1 µM (M14 [4]): 69 to 79%
- GI50 (TK-10): 302 to 334 nM
- TGI (TK-10): 891 to 1720 nM
- CC50 (TK-10; [17]): > 100000 nM
- GI50 (K562): 78.1 to 126 nM
- TGI (K562; read-out: TGI): > 100000 nM
- CC50 (K562; [17]): > 100000 nM
- TGI (K562; read-out: pTGI): > 100000 nM
- growth at 0.01 µM (OVCAR-8): 50 to 62%
- growth at 0.01 µM (A498 [5]): 103 to 107%
- GI50 (UACC-257): 270 to 446 nM
- CC50 (UACC-257): > 100000 nM
- TGI (UACC-257): 63800 to 100000 nM
- GI50 (A498 [6]): 225 to 334 nM
- CC50 (A498 [6]): 842 to 5620 nM
- TGI (A498 [6]): 435 to 1000 nM
- growth at 0.1 µM (NCI-H226): 102 to 108%
- growth at 0.1 µM (OVCAR-4): 89 to 95%
- growth at 0.1 µM (UO-31 [7]): 61 to 69%
- growth at 0.01 µM (UO-31 [8]): 67 to 82%
- growth at 100 µM (ACHN [9]): 7%
- growth at 0.01 µM (CCRF-CEM): 96 to 97%
- growth at 0.1 µM (SN12C [10]): 53 to 72%
- growth at 1 µM (SF-295): 13 to 20%
- growth at 0.1 µM (EKVX [11]): 78 to 79%
- GI50 (M14 [12]): 157 to 200 nM
- CC50 (M14 [12]): > 100000 nM
- TGI (M14 [12]): 520 to 659 nM
- GI50 (UO-31 [13]): 153 to 173 nM
- TGI (UO-31 [13]): 472 to 1780 nM
- CC50 (UO-31 [13]): > 100000 nM
- GI50 (SNB-19): 21 to 204 nM
- TGI (SNB-19; read-out: TGI): 294 nM
- CC50 (SNB-19; [17]): > 100000 nM
- TGI (SNB-19; read-out: pTGI (converted)): 295 nM
- growth at 0.01 µM (PC-3): 91 to 94%
- growth at 0.01 µM (SN12C [14]): 85 to 90%

SMILES: C#C[C@@]1(O)[C@@H](CO)O[C@@H](n2cc(Br)c3c(N)ncnc32)[C@@H]1O
- growth at 0.01 µM (ACHN [1]): 97%
- growth at 100 µM (HCT-15): 1 to 4%
- growth at 0.1 µM (Hs-578T): 92 to 97%
- GI50 (COLO 205): 43.6 to 182 nM
- CC50 (COLO 205): 8040 to 100000 nM
- TGI (COLO 205): 235 to 903 nM
- growth at 0.1 µM (BT-549): 65 to 84%
- growth at 1 µM (EKVX [2]): 4 to 17%
- growth at 1 µM (ACHN [3]): 8%
- GI50 (SF-539): 238 to 372 nM
- CC50 (SF-539): 22000 to 30900 nM
- TGI (SF-539): 1140 to 2040 nM
- growth at 0.1 µM (M14 [4]): 56 to 81%
- GI50 (TK-10): 411 to 481 nM
- CC50 (TK-10; [18]): > 100000 nM
- TGI (TK-10): 85800 to 100000 nM
- GI50 (K562): 41.1 to 90 nM
- CC50 (K562; [18]): > 100000 nM
- TGI (K562; read-out: TGI): > 100000 nM
- TGI (K562; read-out: pTGI): > 100000 nM
- growth at 0.01 µM (OVCAR-8): 53 to 76%
- growth at 0.01 µM (A498 [5]): 95 to 97%
- GI50 (UACC-257): 2820 to 5900 nM
- CC50 (UACC-257): > 100000 nM
- TGI (UACC-257): 49200 to 77000 nM
- GI50 (A498 [6]): 185 to 280 nM
- CC50 (A498 [6]): 940 to 4210 nM
- TGI (A498 [6]): 417 to 828 nM
- growth at 0.1 µM (NCI-H226): 81 to 98%
- growth at 0.1 µM (OVCAR-4): 78 to 89%
- growth at 0.1 µM (UO-31 [7]): 55 to 57%
- growth at 10 µM (MDA-MB-231 [15]): 1 to 6%
- growth at 0.01 µM (UO-31 [8]): 70 to 84%
- growth at 100 µM (ACHN [9]): 7%
- growth at 0.01 µM (CCRF-CEM): 96 to 100%
- growth at 0.1 µM (SN12C [10]): 31 to 69%
- growth at 100 µM (MDA-MB-231 [16]): 9%
- growth at 1 µM (SF-295): 24 to 36%
- growth at 0.1 µM (EKVX [11]): 60 to 74%
- GI50 (M14 [12]): 145 to 353 nM
- CC50 (M14 [12]): 75300 to 100000 nM
- TGI (M14 [12]): 12900 to 14200 nM
- GI50 (UO-31 [13]): 115 to 130 nM
- TGI (UO-31 [13]): 315 to 1500 nM
- CC50 (UO-31 [13]): > 100000 nM
- GI50 (SNB-19): 17.4 to 211 nM
- CC50 (SNB-19; [18]): > 100000 nM
- TGI (SNB-19; read-out: TGI): 777 to 100000 nM
- growth at 0.01 µM (PC-3): 86 to 92%
- growth at 0.01 µM (SN12C [14]): 76 to 96%
